Assays:
[1] = system: human umbilical vein endothelial cells (HUVECs); assay: Matrigel angiogenesis assay (tube formation) with HUVECs; format: cell-based; conditions: FIGS. 5 and 6; for inhibition of angiogenesis of HUVEC cells on the Matrigel: 24 hours
Procedure: (§1) A total of 200 μl Matrigel was added into wells of a 24-well plate and polymerized for 30 minutes at 37° C. EPC suspensions containing various concentrations of Dsg2 peptide (0.25 mg/ml, 0.5 mg/ml, or 1 mg/ml), scramble peptide (1 mg/ml) or Avastin (10 μg/ml) were plated on the Matrigel-coated wells at a density of 5×10^4 cells (EPCs, or HUVECs) in MV2 medium containing 2% FBS for 24 hours at 37° C. in a 5% CO2 humidified incubator. Each sample was tested in triplicate in the same plate, and wells were photographed with a Leica camera (×40 magnification).
(§2) Tube length in relative to the control was quantified by measuring tubes in 5 randomly chosen fields from each well with QWIN software. Experiments were repeated more than three times. The values were expressed as the means±S.D. for the three independent experiments.

[2] = system: C57BL/6 mice; assay: Oxygen-induced retinopathy (OIR) retinal neovascularization model; format: in vivo, mouse; conditions: FIGS. 9 and 10; for inhibition of angiogenesis (retinal neovascularization) in the OIR model: intravitreal injection at P12, eyes at P17, compared with PBS or scramble peptide, p<0.01
Procedure: The neonatal mouse (C57BL/6) pups of normoxia group (serving as control) were kept in room air until postnatal day 12 (P12), while the pups of OIR group were maintained with their nursing mothers for 5 days in 75% oxygen at P7 and then returned to room air (relative hypoxia) so as to generate oxygen-induced neovascularization at P12. 1 μl of Dsg2 peptide (25 μg), scramble peptide (25 μg) and Avastin (10 μg) were intravitreally injected into mouse eyes at P12, respectively. The animals were killed, and the mouse eyes were enucleated at P17.
Mouse eye cups were fixed in 4% paraformaldehyde for 2 hours. The retina was carefully separated from eye cup, and then incubated with fluorescein-labeled isolectin-B4 (Life technologies) at 4° C. overnight. Samples were coverslipped with Vectashield medium (Vector Laboratories), and the lectin labeling was examined by use of the 20× objective of a Zeiss LSM-510 confocal microscope. Fluorescence volume measurements were recorded by creating image stacks of optical slices within lesions with QWIN software. Values for implicit volume were designated as mean total surface area.

[3] = system: human endothelial progenitor cells (EPCs); assay: Matrigel angiogenesis assay (tube formation) with EPCs; format: cell-based; conditions: for inhibition of angiogenesis in EPCs: FIGS. 3 and 4
Procedure: as §1, §2

[4] = system: C57BL/6 mice; assay: Matrigel plug assay; format: in vivo, mouse; conditions: 7 days
Procedure: 0.5 ml of growth factor-reduced liquid Matrigel respectively containing: (1) heparin (60 U/mL); (2) heparin (60 U/mL), VEGF (10 ng/ml), and PBS; (3) heparin (60 U/mL), VEGF (10 ng/ml), and scramble peptide (1 mg/ml); and (4) heparin (60 U/mL), VEGF (10 ng/ml), and Dsg2 peptide (1 mg/ml) were subcutaneously injecting into the skin near the abdominal midline of C57BL/6 mice. 7 days after injection, mice were euthanized, and Matrigel plugs were surgically removed and analyzed.
For macroscopic analysis of angiogenesis, hemoglobin content in Matrigel was measured with Drabkin reagent 525 (Sigma-Aldrich). Briefly, the Matrigel plug sample was re-liquefied by being place at 4° C. on ice with red cell lysis reagent for 24 hours. After brief centrifugation, 20 μl of supernatant was added to 100 μl of Drabkin solution. The mixture was allowed to stand 30 minute at room temperature, and the absorbance was measured at 540 nm. The obtained hemoglobin content was normalized to the plug weight and the value was expressed as μg hemoglobin/mg Matrigel plug.

Substance | inhibition of angiogenesis of HUVEC cells on the Matrigel [1] | inhibition of angiogenesis (retinal neovascularization) in the OIR model [2] | inhibition of angiogenesis in EPCs ([3]; 0.5 mg/ml (200 uM)) | inhibition of angiogenesis in EPCs ([3]; 1.0 mg/ml (400 uM)) | reduction of tube formation ([3]; 1.0 mg/ml (400 uM), p<0.05) | relative tube length in relative to the control group ([3]; 1.0 mg/ml (400 uM), p<0.05) | efficacy in inhibiting tube formation compared with Avastin ([1]; HUVECs on Matrigel) | formation of newly formed blood vessels in Matrigel plug ([4]; 1 mg/ml in plug with heparin and VEGF, compared with PBS or scramble peptide, FIG. 7) | hemoglobin content of Matrigel plug ([4]; 1 mg/ml in plug, vs plug containing PBS or scramble peptide, p<0.05, FIG. 8) | anti-angiogenic efficacy compared with Avastin ([2]; OIR model, intravitreal) | inhibition of angiogenesis (tube formation) of EPCs on Matrigel ([3]; fragments at 1.0 mg/ml, p<0.05, FIG. 2)
Bevacizumab [Avastin, reference compound] | capable of inhibiting angiogenesis | significantly inhibited the angiogenesis |  |  |  |  |  |  |  |  | 
KINATDADEPNTLNSKISYRC (extra C-terminal cysteine; Dsg2-derived peptide) [Dsg2-derived short peptide, KR20 fragment conjugated with one extra cysteine residue] | capable of inhibiting angiogenesis | significantly inhibited the angiogenesis | significantly inhibited angiogenesis | significantly inhibited angiogenesis | more than 50% | less than 50% | more effective than Avastin | capable of inhibiting the formation of newly formed blood vessels | significantly lower | better than that of Avastin | 
IVSLEPAYPP (IP10) [fragment of the predicted EC2 domain of Dsg2 peptide] |  |  |  |  |  |  |  |  |  |  | can inhibit the angiogenesis

Source: patent US9925238B2, “Use of peptide for treating angiogenesis-related diseases” (MacKay Memorial Hospital, priority 2014, dated 2018)
